Assay results as given in BindingDB's records for PubMed 36126447 (Acharya & Bm Reddy College of Pharmacy, 2022).

Biological target: Programmed cell death 1 ligand 1 (Homo sapiens) (UniProt Q9NZQ7)
Assay: Inhibition of human PD-1/PDL1 protein-protein interaction by luminescence proximity homogeneous assay

Chain of Programmed cell death 1 ligand 1 (Homo sapiens) (Q9NZQ7 whole entry, looked up): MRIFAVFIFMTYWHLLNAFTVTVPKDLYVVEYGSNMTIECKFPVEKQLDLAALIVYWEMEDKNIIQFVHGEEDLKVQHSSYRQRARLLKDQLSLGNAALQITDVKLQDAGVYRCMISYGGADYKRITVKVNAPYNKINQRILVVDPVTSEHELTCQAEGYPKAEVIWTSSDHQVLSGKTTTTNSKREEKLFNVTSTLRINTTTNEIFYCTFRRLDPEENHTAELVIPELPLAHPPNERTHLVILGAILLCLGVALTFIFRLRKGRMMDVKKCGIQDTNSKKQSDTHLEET

Cc1c(COc2ccc(C[C@H](N)C(=O)O)cc2Br)cccc1-c1ccccc1
IC50: 1.5 µM
